# Laboratory results published in publication PMC9060532 (RSC Advances, 2019).
# How the values were obtained:
# [1] = Pharmacokinetic study in rats, plasma by HPLC-Ion-Trap-MS/MS; assay type: in vivo, Sprague-Dawley rats
# [2] = Stability of bornyl caffeate and caffeic acid in rat plasma; assay type: in vitro ADME; settings: for Autosampler stability Concentration measured / Autosampler stability Stability (%): processed rat plasma QC, autosampler 20 °C 24 h; for Autosampler stability Concentration measured / Autosampler stability Stability (%) / Short-term Concentration measured / Short-term Stability (%) / Freeze–thaw Concentration measured / Freeze–thaw Stability (%) / Long-term Concentration measured / Long-term Stability (%): n = 6; for Short-term Concentration measured / Short-term Stability (%) / Freeze–thaw Concentration measured / Freeze–thaw Stability (%) / Long-term Concentration measured / Long-term Stability (%): rat plasma; for Short-term Concentration measured / Short-term Stability (%): room temperature 24 h; for Freeze–thaw Concentration measured / Freeze–thaw Stability (%): three freeze–thaw cycles (−20 °C 24 h); for Long-term Concentration measured / Long-term Stability (%): −20 °C 3 weeks
# [3] = Metabolite identification in rat plasma, urine and feces by HPLC-Q-TOF MS/MS; assay type: in vivo, Sprague-Dawley rats; settings: rats, bornyl caffeate ig 30 mg kg^−1; p plasma, u urine, f feces
# [4] = CA in rat plasma after CA ig 17 mg kg^−1, n = 6
# [5] = Sprague-Dawley, rat, plasma, po, 17 mg/kg
structure (smiles),measurement,setting,value
O=C(O)/C=C/c1ccc(O)c(O)c1 [Caffeic acid],T 1/2Ka,[1]; [4],7.2 ± 1.8 min
same,T 1/2α1,[1]; [4],24 ± 5.4 min
same,AUC(0-inf),[1]; [5],821 ± 86.2 ng·h/mL
same,AUC(0-t),[1]; [5],787 ± 80.3 ng·h/mL
same,Cmax,[1]; [5],450 ± 13.8 ng/mL
same,Tmax,[1]; [5],15 ± 0.6 min
same,Autosampler stability Concentration measured,[2]; 4 ng mL^−1 added,3.93 ± 0.16 ng/mL
same,Autosampler stability Stability (%),[2]; 4 ng mL^−1 added,98.25%
same,Autosampler stability Concentration measured,[2]; 200 ng mL^−1 added,191.9 ± 6.19 ng/mL
same,Autosampler stability Stability (%),[2]; 200 ng mL^−1 added,95.95%
same,Autosampler stability Concentration measured,[2]; 3000 ng mL^−1 added,2991.17 ± 12.48 ng/mL
same,Autosampler stability Stability (%),[2]; 3000 ng mL^−1 added,99.7%
same,Short-term Concentration measured,[2]; 4 ng mL^−1 added,3.97 ± 0.15 ng/mL
same,Short-term Stability (%),[2]; 4 ng mL^−1 added,99.38%
same,Freeze–thaw Concentration measured,[2]; 4 ng mL^−1 added,3.77 ± 0.14 ng/mL
same,Freeze–thaw Stability (%),[2]; 4 ng mL^−1 added,94.29%
same,Long-term Concentration measured,[2]; 4 ng mL^−1 added,4.03 ± 0.18 ng/mL
same,Long-term Stability (%),[2]; 4 ng mL^−1 added,100.79%
same,Short-term Concentration measured,[2]; 200 ng mL^−1 added,196.41 ± 4.57 ng/mL
same,Short-term Stability (%),[2]; 200 ng mL^−1 added,98.2%
same,Freeze–thaw Concentration measured,[2]; 200 ng mL^−1 added,202.1 ± 6.48 ng/mL
same,Freeze–thaw Stability (%),[2]; 200 ng mL^−1 added,101.05%
same,Long-term Concentration measured,[2]; 200 ng mL^−1 added,197.22 ± 6.86 ng/mL
same,Long-term Stability (%),[2]; 200 ng mL^−1 added,98.61%
same,Short-term Concentration measured,[2]; 3000 ng mL^−1 added,3009.81 ± 6.45 ng/mL
same,Short-term Stability (%),[2]; 3000 ng mL^−1 added,100.33%
same,Freeze–thaw Concentration measured,[2]; 3000 ng mL^−1 added,2835.08 ± 9.86 ng/mL
same,Freeze–thaw Stability (%),[2]; 3000 ng mL^−1 added,94.23%
same,Long-term Concentration measured,[2]; 3000 ng mL^−1 added,2990.99 ± 4.97 ng/mL
same,Long-term Stability (%),[2]; 3000 ng mL^−1 added,99.7%
same,stability in plasma (in words),"[2]; room temperature for 24 h, −20 °C for 3 weeks, or autosampler for 24 h",stable
"O=C(O)CCc1ccc(O)c(O)c1 [M4, Dihydrocaffeic acid]",Location (samples in which parent or metabolite was detected),[3],observed in all the three kinds of samples
"O=C(O)c1ccccc1 [M8, Benzoic acid]",Location (samples in which parent or metabolite was detected),[3],urine and feces
"COc1cc(CCC(=O)O)ccc1O [M9a, Dihydroferulic acid]",Location (samples in which parent or metabolite was detected),[3],found in rat feces alone
"COc1ccc(/C=C/C(=O)O)cc1O [M14b, Isoferulic acid]",Location (samples in which parent or metabolite was detected),[3],observed in all the three kinds of samples
